{"source": "DBAASP", "data": [{"system": "Escherichia coli JW0013", "experiment": "≥ marks a high value that may be exact or a test limit, other limits are often not marked, values filed in µg/mL are converted to µM", "units": {"MIC": "µM"}, "values": [{"molecule": "CC[C@H](C)[C@H](NC(=O)[C@H](CCCN=C(N)N)NC(=O)[C@H](CCCN=C(N)N)NC(=O)[C@@H]1CCCN1C(=O)[C@@H]1CCCN1C(=O)[C@H](CCCN=C(N)N)NC(=O)[C@@H]1CCCN1C(=O)[C@H](CCCN=C(N)N)NC(=O)[C@@H]1CCCN1C(=O)[C@H](CCCN=C(N)N)NC(=O)[C@H](Cc1ccc(O)cc1)NC(=O)[C@H](Cc1cnc[nH]1)NC(=O)[C@H](CCCCN)NC(=O)[C@H](CCCCN)NC(=O)[C@H](CC(=O)O)NC(=O)[C@@H](N)C(C)C)C(=O)N[C@@H](Cc1ccc(O)cc1)C(=O)N[C@@H](CC(N)=O)C(=O)N[C@@H](CCCN=C(N)N)C(N)=O", "note": "[VDKKHYRPRPRPPRRIYNR]", "MIC": 0.639}, {"molecule": "CC[C@H](C)[C@H](NC(=O)[C@H](CCCN=C(N)N)NC(=O)[C@H](CCCN=C(N)N)NC(=O)[C@@H]1CCCN1C(=O)[C@@H]1CCCN1C(=O)[C@H](CCCN=C(N)N)NC(=O)[C@@H]1CCCN1C(=O)[C@H](CCCN=C(N)N)NC(=O)[C@@H]1CCCN1C(=O)[C@H](CC(C)C)NC(=O)[C@H](Cc1ccc(O)cc1)NC(=O)[C@@H]1CCCN1C(=O)[C@@H]1CCCN1C(=O)[C@H](CCCCN)NC(=O)[C@H](CCCCN)NC(=O)[C@@H](N)C(C)C)C(=O)N[C@@H](Cc1ccc(O)cc1)C(=O)N[C@@H](CC(N)=O)C(=O)N[C@@H](CCCN=C(N)N)C(N)=O", "note": "[VKKPPYLPRPRPPRRIYNR]", "MIC": 1.37}, {"molecule": "CC[C@H](C)[C@H](NC(=O)[C@H](CCCN=C(N)N)NC(=O)[C@H](CCCN=C(N)N)NC(=O)[C@@H]1CCCN1C(=O)[C@@H]1CCCN1C(=O)[C@H](CCCN=C(N)N)NC(=O)[C@H](CCCCN)NC(=O)[C@H](CCCN=C(N)N)NC(=O)[C@@H]1CCCN1C(=O)[C@H](CC(C)C)NC(=O)[C@H](Cc1ccc(O)cc1)NC(=O)[C@@H]1CCCN1C(=O)[C@H](CCCN=C(N)N)NC(=O)[C@H](CCCCN)NC(=O)[C@H](CC(=O)O)NC(=O)[C@@H](N)C(C)C)C(=O)N[C@@H](Cc1ccc(O)cc1)C(=O)N[C@@H](CC(N)=O)C(=O)N[C@@H](CCCN=C(N)N)C(N)=O", "note": "[VDKRPYLPRKRPPRRIYNR]", "MIC": 0.685}, {"molecule": "CC[C@H](C)[C@H](NC(=O)[C@H](CCCN=C(N)N)NC(=O)[C@H](CCCN=C(N)N)NC(=O)[C@@H]1CCCN1C(=O)[C@@H]1CCCN1C(=O)[C@H](CCCN=C(N)N)NC(=O)[C@@H]1CCCN1C(=O)[C@H](CCCN=C(N)N)NC(=O)[C@@H]1CCCN1C(=O)[C@H](CC(C)C)NC(=O)[C@H](Cc1ccc(O)cc1)NC(=O)[C@H](CCCN=C(N)N)NC(=O)[C@@H]1CCCN1C(=O)[C@H](CCCCN)NC(=O)[C@H](CC(=O)O)NC(=O)[C@@H](N)C(C)C)C(=O)N[C@@H](Cc1ccc(O)cc1)C(=O)N[C@@H](CC(N)=O)C(=O)N[C@@H](CCCN=C(N)N)C(N)=O", "note": "[VDKPRYLPRPRPPRRIYNR]", "MIC": 1.35}, {"molecule": "CC[C@H](C)[C@H](NC(=O)[C@H](CCCN=C(N)N)NC(=O)[C@H](CCCN=C(N)N)NC(=O)[C@@H]1CCCN1C(=O)[C@@H]1CCCN1C(=O)[C@H](CCCN=C(N)N)NC(=O)[C@@H]1CCCN1C(=O)[C@H](CCCN=C(N)N)NC(=O)[C@@H]1CCCN1C(=O)[C@H](CC(C)C)NC(=O)[C@H](Cc1ccc(O)cc1)NC(=O)[C@@H]1CCCN1C(=O)[C@@H]1CCCN1C(=O)[C@H](CCCCN)NC(=O)[C@H](CC(=O)O)NC(=O)[C@@H](N)CCCN=C(N)N)C(=O)N[C@@H](Cc1ccc(O)cc1)C(=O)N[C@@H](CC(N)=O)C(=O)N[C@@H](CCCN=C(N)N)C(N)=O", "note": "[RDKPPYLPRPRPPRRIYNR]", "MIC": 1.96}, {"molecule": "CC[C@H](C)[C@H](NC(=O)[C@H](CCCN=C(N)N)NC(=O)[C@H](CCCN=C(N)N)NC(=O)[C@@H]1CCCN1C(=O)[C@@H]1CCCN1C(=O)[C@H](CCCN=C(N)N)NC(=O)[C@H](CCCN=C(N)N)NC(=O)[C@H](CCCN=C(N)N)NC(=O)[C@@H]1CCCN1C(=O)[C@H](CC(C)C)NC(=O)[C@H](Cc1ccc(O)cc1)NC(=O)[C@H](Cc1cnc[nH]1)NC(=O)[C@H](CCCCN)NC(=O)[C@H](CCCCN)NC(=O)[C@H](CC(=O)O)NC(=O)[C@@H](N)C(C)C)C(=O)N[C@@H](Cc1ccc(O)cc1)C(=O)N[C@@H](CC(N)=O)C(=O)N[C@@H](CCCN=C(N)N)C(N)=O", "note": "[VDKKHYLPRRRPPRRIYNR]", "MIC": 0.952}]}]}
